Data set [1] concerns the target T1, c-Met phosphorylation (pY1349) in NCI-H460 cells (Homo sapiens, UniProt P08581).
T1 construct: host or cells: NCI-H460
As to the kind of experiment: HGF Stimulated Met (pY1349) NCI-H460 Cell-based ELISA. Conditions: 0.2 μM compound; for Mean of Activity (% Control): mean of replicates; for Counts / Activity (% Control): single replicates; for Activity (% Control): 0.2 µM. As to the method: HGF Stimulated Met (pY1349) NCI-H460 Cell-based ELISA NCI-H460 cells (purchased from ATCC) are cultured in RPMI 1640 media (Invitrogen) supplemented with 10% Fetal Bovine Scrum (FBS) and plated (prior to becoming 70% confluent) in 96-well flat-bottom plates at a density of 20,000 cells per well in 80 μL volume. The cells are then incubated overnight in a cell culture incubator (5% CO2, 95% Relative Humidity (RH) and 37° C.) and allowed to attach to the plate. The following morning the cells are washed with 2 volumes of a Reduced Serum Media (RSM) (RPMI 1640 media supplemented with 0.5% FBS). After removal of the last wash, 80 µL of RSM is added to each well of the cell plates. The cell plates are incubated for 2.5 hours in a cell culture incubator, and then dosed with compounds. Compound inhibitors are first solubilized at 10 mM in 100% DMSO and then diluted to 100 μM with 2% DMSO RSM. Subsequently compound serial dilutions (1:3) are prepared over a 100 μM to 0.005 μM range. Cells are dosed with the addition of 20 μL of compound stock to produce a final DMSO concentration of 0.4% and a final compound concentration dose range between 20 and 0.001 μM. After dosing with compounds the cells plates are gently agitated to mix and then allowed to incubate for 30 min in a cell culture incubator. After dose completion, the cells are stimulated with the addition of 20 μL per well of Hepatocyte Growth Factor (HGF) at a final concentration of 100 ng/mL in RSM (all wells except MIN wells are stimulated, MIN wells are dosed with 20 μL RSM). After 10 min incubation in a cell culture incubator, the liquid is removed from the cell plate wells, and the cells are lysed by the addition of 50 μL of ice-cold Meso Scale Discovery® (MSD, Gaithersburg, Md.) IX Lysis Buffer (150 mM NaCl, 20 mM Tris, pH7.5, 1 mM EDTA, 1 mM ethylene glycol tetraacetic acid, and 1% TRITON® X-100) supplemented with Phosphatase I and II and Protease inhibitors (Sigma, St. Louis, Mo.). After lysis at RT for 30 min the lysates are transferred to and captured on a MSD® Multi-Spot 96-well. 4-spot PhosphoMet plate that is BSA-blocked (at 30 mg/mL Block A in IX Tris Wash Buffer) and then washed one time with Tris Wash Buffer. After 2 hours capture (at RT) the lysates are removed from the MSD® plate and the plate is washed with IX Tris Wash Buffer. After blotting, 25 μL of 5 nM Sulfo-Tag Anti-Total Met antibody (detection antibody, MSD® prepared in IX Tris Wash Buffer supplemented with 10 mg/mL BSA and 0.1% Blocker D-R (MSD®)) is added to the wells of the MSD® plate. After 1 hour capture (at RT) the MSD® plate wells are washed with IX Tris Wash Buffer, and then 150 μL of IX Read Buffer T (with surfactant, MSD®) is added. Immediately after the addition of the Read Buffer, the plates are analyzed with a SECTOR 6000 MSD® Imager plate reader. Relative IC50 values are determined using MSD activity units by calculating percent inhibition with respect to on-plate “MIN” and “MAX” controls and then fitting the percent inhibition values and ten-point dose response data to a four-parameter logistic equation. This assay has a Minimum Significant Ratio (MSR) of 2.06.

Several values for one entry are separate records, joined by “and”; a condition that tells them apart may be missing. Equal values may be shown once.

A word on the melting point: it is the temperature of the solid-liquid transition.

T1 sequence (P08581 25-1390): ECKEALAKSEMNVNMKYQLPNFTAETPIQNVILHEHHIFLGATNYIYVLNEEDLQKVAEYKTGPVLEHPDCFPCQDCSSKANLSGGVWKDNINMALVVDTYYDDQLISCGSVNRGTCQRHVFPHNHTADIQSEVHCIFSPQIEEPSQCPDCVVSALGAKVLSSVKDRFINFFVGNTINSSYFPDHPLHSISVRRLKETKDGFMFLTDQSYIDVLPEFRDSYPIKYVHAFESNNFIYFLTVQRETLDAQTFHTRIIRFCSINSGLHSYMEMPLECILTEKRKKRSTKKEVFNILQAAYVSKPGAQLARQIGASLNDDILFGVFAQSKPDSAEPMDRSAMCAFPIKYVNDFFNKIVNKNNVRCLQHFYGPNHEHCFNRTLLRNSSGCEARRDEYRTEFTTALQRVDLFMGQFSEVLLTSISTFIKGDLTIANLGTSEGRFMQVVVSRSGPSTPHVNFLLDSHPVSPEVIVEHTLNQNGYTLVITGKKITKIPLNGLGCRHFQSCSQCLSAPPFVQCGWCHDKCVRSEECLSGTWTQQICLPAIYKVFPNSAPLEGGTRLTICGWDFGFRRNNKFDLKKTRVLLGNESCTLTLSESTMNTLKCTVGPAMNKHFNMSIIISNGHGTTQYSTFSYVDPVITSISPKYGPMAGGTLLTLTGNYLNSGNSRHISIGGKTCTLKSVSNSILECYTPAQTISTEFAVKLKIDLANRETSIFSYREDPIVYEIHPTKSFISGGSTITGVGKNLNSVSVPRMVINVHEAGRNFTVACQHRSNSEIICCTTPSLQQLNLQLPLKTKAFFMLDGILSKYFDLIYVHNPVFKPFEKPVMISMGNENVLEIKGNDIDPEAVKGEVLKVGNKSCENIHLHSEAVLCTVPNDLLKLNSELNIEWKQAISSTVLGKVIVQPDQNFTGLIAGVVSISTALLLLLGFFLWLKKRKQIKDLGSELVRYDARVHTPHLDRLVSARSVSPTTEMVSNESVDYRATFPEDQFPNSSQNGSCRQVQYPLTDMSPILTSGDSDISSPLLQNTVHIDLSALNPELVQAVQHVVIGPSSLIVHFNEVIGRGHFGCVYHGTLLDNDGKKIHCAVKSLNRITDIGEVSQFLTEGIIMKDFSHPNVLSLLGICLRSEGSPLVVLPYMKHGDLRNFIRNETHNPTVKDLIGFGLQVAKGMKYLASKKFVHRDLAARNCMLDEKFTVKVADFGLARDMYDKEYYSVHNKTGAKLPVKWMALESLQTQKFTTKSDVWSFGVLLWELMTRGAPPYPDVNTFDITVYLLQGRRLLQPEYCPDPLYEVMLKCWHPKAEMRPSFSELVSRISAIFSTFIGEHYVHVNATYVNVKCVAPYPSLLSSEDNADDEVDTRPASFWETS

In the case of `Cn1c(Nc2ccccc2)ncc(-c2ccc(Oc3ccnc4cc5c(cc34)OCCOCCOCCOCCOCCO5)cn2)c1=O` [Example 31, 5-[5-(2,5,8,11,14,17-Hexaoxa-21-aza-tricyclo[16.8.0.020,25]hexacosa-1(18), 19,21,23,25-pentaen-24-yloxy)-pyridin-2-yl]-3-methyl-2-phenylamino-3 H-pyrimidin-4-one], in data set [1], the “Mean (Counts − Blanks)” value amounted to 17936; the “Mean of Activity (% Control)” value was 37 % Control; the Counts was 20248 and 17427; the “Activity (% Control)” value was 43 % Control and 31 % Control.
With `Cn1c(Nc2ccc(F)cc2)ncc(-c2ccc(Oc3ncnc4cc5c(cc34)OCCCO5)cn2)c1=O` [Example 20, 5-[5-(8,9-Dihydro-7H-6,10-dioxa-1,3-diaza-cyclohepta[b]naphthalen-4-yloxy)-pyridin-2-yl]-2-(4-fluoro-phenylamino)-3-methyl-3H-pyrimidin-4-one], in data set [1], the “Mean (Counts − Blanks)” value worked out at 32073; the “Mean of Activity (% Control)” value is 39 % Control; the Counts was 34234 and 31716; the “Activity (% Control)” value was 44 % Control and 33 % Control.
For `Cn1c(Nc2ccccc2)ncc(-c2ccc(Oc3ccnc4cc5c(cc34)OC(F)(F)O5)cn2)c1=O` [Example 28, 5-[5-(2,2-Difluoro-[1,3]dioxolo[4,5-g]quinolin-8-yloxy)-pyridin-2-yl]-2-(phenylamino)-3-methyl-3H-pyrimidin-4-one], in data set [1], the “Mean (Counts − Blanks)” value came out at 30; the “Mean of Activity (% Control)” value is 1 % Control; the Counts is 1070 and 793; the “Activity (% Control)” value was 1 % Control and 0 % Control.
Consider `O=C(Nc1ccc(Oc2ccnc3cc4c(cc23)OCCOCCOCCO4)c(F)c1)c1cccn(-c2ccc(F)cc2)c1=O` [Example 11, 1-(4-Fluoro-phenyl)-2-oxo-1,2-dihydro-pyridine-3-carboxylic acid [3-fluoro-4-(7,8,10,11,13,14-hexahydro-6,9,12,15-tetraoxa-1-aza-cyclododeca[b]naphthalen-4-yloxy)-phenyl]-amide], for which, in data set [1], the “Mean (Counts − Blanks)” value amounted to 31407; the “Mean of Activity (% Control)” value stood at 35 % Control; the Counts was 32582 and 32035; the “Activity (% Control)” value is 36 % Control and 34 % Control.
`Cn1c(Nc2ccc(F)cc2)ncc(-c2ccc(Oc3ncnc4cc5c(cc34)OCCOCCOCCO5)cn2)c1=O` [Example 6, 2-(4-Fluoro-phenylamino)-5-[5-(7,8,10,11,13,14-hexahydro-6,9,12,15-tetraoxa-1,3-diaza-cyclododeca[b]naphthalen-4-yloxy)-pyridin-2-yl]-3-methyl-3H-pyrimidin-4-one]: in data set [1], the “Mean (Counts − Blanks)” value was 29068; the “Mean of Activity (% Control)” value is 25 % Control; the Counts was 30847 and 29093; the “Activity (% Control)” value was 29 % Control and 21 % Control.
As to `Cn1c(Nc2ccc(F)cc2)ncc(-c2ccc(Oc3ncnc4cc5c(cc34)OC(F)(F)O5)cn2)c1=O` [Example 8, 5-[5-(2,2-Difluoro-[1,3]dioxolo[4,5-g]quinazolin-8-yloxy)-pyridin-2-yl]-2-(4-fluoro-phenylamino)-3-methyl-3H-pyrimidin-4-one], in data set [1], the “Mean (Counts − Blanks)” value is given as 28728; the “Mean of Activity (% Control)” value turned out to be 24 % Control; the Counts is 30429 and 28830; the “Activity (% Control)” value was 27 % Control and 20 % Control.
Regarding `CN1CCOc2cc3ncnc(Oc4ccc(-c5cnc(Nc6ccc(F)cc6)n(C)c5=O)nc4)c3cc2OCC1` [Example 21, 2-(4-Fluoro-phenylamino)-3-methyl-5-[5-(9-methyl-8,9,10,11-tetrahydro-7H-6,12-dioxa-1,3,9-triaza-cyclonona[b]naphthalen-4-yloxy)-pyridin-2-yl]-3H-pyrimidin-4-one], in data set [1], the “Mean (Counts − Blanks)” value is reported as 29384; the “Mean of Activity (% Control)” value is 27 % Control; the Counts was 31741 and 28830; the “Activity (% Control)” value was 33 % Control and 20 % Control.
In the case of `O=C(Nc1ccc(Oc2ncnc3cc4c(cc23)OCO4)c(F)c1)c1c[nH]cc(-c2ccc(F)cc2)c1=O` [Example 9, 5-(4-Fluoro-phenyl)-4-oxo-1,4-dihydro-pyridine-3-carboxylic acid [4-([1,3]dioxolo[4,5-g]quinazolin-8-yloxy)-3-fluoro-phenyl]-amide], in data set [1], the “Mean (Counts − Blanks)” value came out at 27649; the “Mean of Activity (% Control)” value amounted to 19 % Control; the Counts is 28364 and 28738; the “Activity (% Control)” value was 18 % Control and 20 % Control.
In turn, `O=C(Nc1ccc(Oc2ccnc3cc4c(cc23)OCCOCCOCCO4)c(F)c1)c1c[nH]cc(-c2ccc(F)cc2)c1=O` [Example 10, 5-(4-Fluoro-phenyl)-4-oxo-1,4-dihydro-pyridine-3-carboxylic acid [3-fluoro-4-(7,8,10,11,13,14-hexahydro-6,9,12,15-tetraoxa-1-aza-cyclododeca[b]naphthalen-4-yloxy)-phenyl]-amide] returned a melting point of 188 to 190 °C. For the same compound, in data set [1], the “Mean (Counts − Blanks)” value amounted to 28866; the “Mean of Activity (% Control)” value is recorded as 25 % Control; the Counts is 30524 and 29012; the “Activity (% Control)” value is 28 % Control and 21 % Control.

These data come from patent US9242991B2, “Substituted fused heterocycles as c-Met tyrosine kinase inhibitors” (BETTA PHARMACEUTICALS CO., LTD, priority 2010, dated 2016).
